Measurements from ChEMBL document CHEMBL1157666, “Design, synthesis and biological evaluation of thiazolidinone derivatives as potential EGFR and HER-2 kinase inhibitors” (Bioorg Med Chem, 2010).

Legend:
[1] = target: Epidermal growth factor receptor (Homo sapiens, UniProt P00533); assay: biochemical
Description: Inhibition of cloned EGFR autophosphorylation expressed in baculovirus-infected Sf9 cells by solid-phase ELISA

[2] = target: T1, Receptor tyrosine-protein kinase erbB-2 (Homo sapiens, UniProt P04626); assay: biochemical
Description: (§1) Inhibition of human cloned HER2 autophosphorylation expressed in baculovirus-infected Sf9 cells by solid-phase ELISA

MCF7 = assay: cells; details: Homo sapiens, MCF7, 48 h
[3] = target: T1, Receptor tyrosine-protein kinase erbB-2
Description: as §1

Sequence of Epidermal growth factor receptor (P00533 whole entry): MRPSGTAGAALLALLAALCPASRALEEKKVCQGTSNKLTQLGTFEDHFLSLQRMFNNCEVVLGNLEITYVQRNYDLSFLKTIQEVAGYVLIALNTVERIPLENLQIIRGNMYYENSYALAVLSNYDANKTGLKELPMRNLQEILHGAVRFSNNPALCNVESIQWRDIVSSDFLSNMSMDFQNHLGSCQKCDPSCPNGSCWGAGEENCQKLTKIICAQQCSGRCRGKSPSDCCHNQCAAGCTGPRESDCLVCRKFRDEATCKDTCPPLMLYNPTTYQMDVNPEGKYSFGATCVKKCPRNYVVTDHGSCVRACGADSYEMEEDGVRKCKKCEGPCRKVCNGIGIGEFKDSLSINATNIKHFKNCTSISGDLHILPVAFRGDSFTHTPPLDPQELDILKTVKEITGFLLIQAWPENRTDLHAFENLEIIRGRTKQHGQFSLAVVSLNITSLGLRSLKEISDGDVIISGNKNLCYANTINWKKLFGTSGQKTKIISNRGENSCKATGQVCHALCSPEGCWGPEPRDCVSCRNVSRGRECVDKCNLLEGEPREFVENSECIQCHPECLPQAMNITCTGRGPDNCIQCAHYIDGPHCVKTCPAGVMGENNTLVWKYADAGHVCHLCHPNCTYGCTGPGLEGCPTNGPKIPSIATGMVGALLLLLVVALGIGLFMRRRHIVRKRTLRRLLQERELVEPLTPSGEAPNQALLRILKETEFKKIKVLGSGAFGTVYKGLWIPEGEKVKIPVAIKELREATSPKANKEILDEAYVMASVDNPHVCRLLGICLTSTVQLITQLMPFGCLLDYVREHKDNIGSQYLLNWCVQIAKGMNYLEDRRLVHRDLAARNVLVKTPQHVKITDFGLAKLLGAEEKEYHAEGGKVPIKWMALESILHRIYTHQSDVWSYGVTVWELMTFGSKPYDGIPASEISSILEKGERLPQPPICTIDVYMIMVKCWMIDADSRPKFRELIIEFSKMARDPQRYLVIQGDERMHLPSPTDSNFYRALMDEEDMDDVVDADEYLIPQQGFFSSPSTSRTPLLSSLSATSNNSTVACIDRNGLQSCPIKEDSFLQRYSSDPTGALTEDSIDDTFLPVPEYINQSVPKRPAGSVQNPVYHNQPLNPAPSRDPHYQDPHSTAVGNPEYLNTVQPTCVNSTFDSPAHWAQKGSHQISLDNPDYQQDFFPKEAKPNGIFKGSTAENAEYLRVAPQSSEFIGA
T1 sequence (P04626 whole entry): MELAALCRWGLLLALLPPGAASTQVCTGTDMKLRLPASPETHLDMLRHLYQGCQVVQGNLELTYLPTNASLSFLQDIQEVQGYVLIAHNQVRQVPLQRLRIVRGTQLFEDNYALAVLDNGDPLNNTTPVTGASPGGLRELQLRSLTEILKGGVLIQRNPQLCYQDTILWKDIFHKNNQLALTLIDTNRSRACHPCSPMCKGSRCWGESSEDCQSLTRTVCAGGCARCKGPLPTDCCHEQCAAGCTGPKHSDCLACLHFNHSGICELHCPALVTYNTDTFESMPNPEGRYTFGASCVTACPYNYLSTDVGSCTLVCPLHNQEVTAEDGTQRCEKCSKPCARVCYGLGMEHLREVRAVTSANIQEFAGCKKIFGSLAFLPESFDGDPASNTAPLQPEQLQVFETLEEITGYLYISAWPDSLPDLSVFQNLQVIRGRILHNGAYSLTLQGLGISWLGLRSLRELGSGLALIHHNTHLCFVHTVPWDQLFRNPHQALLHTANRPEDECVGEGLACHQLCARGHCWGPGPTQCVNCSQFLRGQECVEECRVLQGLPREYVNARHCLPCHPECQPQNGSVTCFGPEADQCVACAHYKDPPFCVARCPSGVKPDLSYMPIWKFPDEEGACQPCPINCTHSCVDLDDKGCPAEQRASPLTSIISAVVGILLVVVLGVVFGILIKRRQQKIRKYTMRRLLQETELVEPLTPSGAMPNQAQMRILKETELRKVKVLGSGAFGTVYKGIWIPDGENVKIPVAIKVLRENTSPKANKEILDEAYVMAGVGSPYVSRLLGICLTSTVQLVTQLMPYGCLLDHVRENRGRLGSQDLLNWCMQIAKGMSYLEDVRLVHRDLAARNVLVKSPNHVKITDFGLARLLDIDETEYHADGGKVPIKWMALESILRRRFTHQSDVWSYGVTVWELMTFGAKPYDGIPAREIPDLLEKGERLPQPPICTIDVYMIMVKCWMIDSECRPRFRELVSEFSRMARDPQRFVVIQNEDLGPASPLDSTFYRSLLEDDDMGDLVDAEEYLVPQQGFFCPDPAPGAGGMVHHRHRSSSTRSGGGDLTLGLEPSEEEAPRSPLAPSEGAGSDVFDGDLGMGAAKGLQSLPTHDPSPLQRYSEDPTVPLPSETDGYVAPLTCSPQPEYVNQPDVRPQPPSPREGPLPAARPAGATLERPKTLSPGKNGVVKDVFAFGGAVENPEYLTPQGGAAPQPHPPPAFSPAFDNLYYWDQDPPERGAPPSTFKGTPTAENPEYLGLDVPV

IC50 [1] [µM]	IC50 [2] [µM]	IC50 (MCF7) [µM]	IC50 [3] [µM]	Compound
36	47	27.6	–	O=C1CSC(NN=C2CCCCCC2)=N1
2.18	3.89	1.58	–	O=C1CSC(N/N=C/c2ccc(F)cc2)=N1
1.94	2.75	1.82	–	O=C1CSC(N/N=C/c2ccc(Cl)cc2)=N1
7.46	10.3	2.42	–	O=C1CSC(N/N=C/c2cccc(Br)c2)=N1
23.5	31.8	8.19	–	Cc1cccc(/C=N/NC2=NC(=O)CS2)c1
1.24	3.73	0.62	–	O=C1CSC(N/N=C/c2cc(Br)cc(Br)c2O)=N1
4.71	6.93	1.67	–	O=C1CSC(N/N=C/c2ccc(O)cc2)=N1
13.5	21.7	7.78	–	O=C1CSC(N/N=C/c2cccc(F)c2)=N1
> 50	> 50	38.5	–	O=C1CSC(NN=C2CCCC2)=N1
26.6	37.6	12.6	–	O=C1CSC(N/N=C/c2cccc([N+](=O)[O-])c2)=N1
19.3	27.8	11.8	–	O=C1CSC(N/N=C/c2cccc(O)c2)=N1
> 50	> 50	46.3	–	O=C1CSC(NN=C2CCC2)=N1
41	> 50	32.1	–	O=C1CSC(NN=C2CCCCC2)=N1
1.72	2.43	0.97	–	O=C1CSC(N/N=C/c2ccc(Br)cc2)=N1
10.8	14.3	4.31	–	O=C1CSC(N/N=C/c2cccc(Cl)c2)=N1
31.2	45.5	9.73	–	COc1cccc(/C=N/NC2=NC(=O)CS2)c1
–	31	18.4	–	O=C1CSC(NN=C2CCCCCCC2)=N1
–	–	0.06	0.42	O=C1CSC(N/N=C/c2cc(Br)ccc2O)=N1
0.56	1.78	0.18	–	O=C1CSC(N/N=C/c2cc(Cl)ccc2O)=N1
1.46	4.51	1.56	–	O=C1CSC(N/N=C/c2cc(Cl)cc(Cl)c2O)=N1
–	5.83	2.05	–	Cc1ccc(/C=N/NC2=NC(=O)CS2)cc1
5.78	9.17	3.16	–	COc1ccc(/C=N/NC2=NC(=O)CS2)cc1
0.97	3.59	0.27	–	O=C1CSC(N/N=C/c2cc(F)ccc2O)=N1
6.82	8.46	2.77	–	O=C1CSC(N/N=C/c2ccc([N+](=O)[O-])cc2)=N1
